# In patent US20240277693A1, “A PHARMACEUTICAL PRODUCT CONTAINING TASQUINIMOD AND A METHOD FOR ASSESSING THE PURITY OF SAID PRODUCT” (ACTIVE BIOTECH AB, priority 2021, published 2024):
# Key:
# [1] = Assessment of capsules after manufacture: amount of tasquinimod and of decomposition products; format: physicochemical; settings: for amount of tasquinimod in capsules / amount of compound III in capsules, relative to the amount of tasquinimod: after manufacture; for Tasquinimod (mg/capsule) / Decomposition products (% w/w), relative to the amount of tasquinimod in capsule: 0 months (after manufacturing)
# Description: (§1) In some embodiments, the method disclosed herein comprises storing (keeping) a sample of the pharmaceutical product for a period of time, preferably under selected conditions of temperature and humidity. The amount (or concentration) of tasquinimod and of at least one of compounds I, II, III and IV in the sample may preferably be determined at the beginning or before the storage period and at the end of the storage period. The selected storage conditions may include a temperature in the range of, for example, 20° C. to 40° C., and a relative humidity in the surrounding atmosphere in the range of, for example, 30% to 75%; e.g. 25° C. and 60% RH, or 30° C. and 65% RH, or 35° C. and 70% RH, or 40° C. and 75% RH. The storage period may extend over a time period in the range of, for example, several weeks to several years. For example, the stability testing period (“storage period”) may be 2 weeks, 3 weeks, 1 month, 2 months, 3 months, 4 months, 5 months, 6 months, 9 months, 1 year, 18 months, 2 years, 3 years, 4 years or even 5 years or longer. A shorter storage period may be selected by use of higher storage temperature and/or higher relative humidity (RH). The total amount of a tasquinimod decomposition product in the sample at the end of the storage period may be determined by, for example, HPLC.
# The obtained batch of capsules was assessed by determining the amount of tasquinimod and the amount of compound III in a sample of the capsules. The selected criterion for approving the batch was that the capsules of the sample contain not more than 1.0% w/w of compound III relative to the amount of tasquinimod. […] Therefore, according to the selected criterion for approval, the batch of capsules was determined to be suitable for distribution.
# The obtained batch of capsules was assessed by determining the amount of tasquinimod and the amount of compounds I, II, III and IV in a sample of the capsules. The selected criterion for approving the batch was that the capsules of the sample contain not more than in total 5% w/w of compounds I-IV relative to the amount of tasquinimod. […] Therefore, according to the selected criterion for approval, the batch of capsules was determined to be suitable for distribution.
# (§2) The obtained batch of capsules was subjected to multiple assessments, viz. a first assessment comprising determining the amount of tasquinimod and the amount of compounds I, II, III and IV in a sample of the capsules directly after manufacturing, whereby the selected criterion for approving the batch for distribution was that the capsules of the sample, in a water impermeable blister pack, contain not more than in total 5% w/w of compounds I-IV relative to the amount of tasquinimod, followed by eight further, independent assessments, by determining the amount of tasquinimod and the amount of each one of compounds I, II, III and IV in a sample of the capsules at the end of a period of stability testing (by keeping the capsules, in a water impermeable blister pack, at 25° C./60% RH) of 3, 6, 9, 12, 18, 24, 36 and 48 months, respectively, whereby each time the criterion for approving the batch was that the capsules of the sample, at the end of each period of stability testing, contain a total amount of compounds I-IV of not more than 5.0% w/w, relative to the amount of tasquinimod in the capsules.
# [2] = Stability testing of capsules at 25° C./60% RH in water impermeable blister pack; format: physicochemical
# Description: as §1
# The batch of capsules manufactured in Example 19 was assessed by determining the amount of tasquinimod and the amount of each one of compounds I, II, III and IV in a sample of the capsules at the end of a 3-month stability testing, whereby the criterion for approving the batch was that the capsules of the sample, at the end of the 3-month stability testing, contain a total amount of compounds I-IV of not more than 5.0% w/w, relative to the amount of tasquinimod in the capsules. The stability testing consisted of keeping the capsules, in a water impermeable blister pack, at 25° C./60% RH. At the end of the stability testing, the capsules contained 0.06% w/w of compound I, less than 0.05% w/w of compound II, 0.10% of compound III and less than 0.05% w/w of compound IV, relative to the amount of tasquinimod (determined to be 0.246 mg/capsule), viz. in total less than 0.26% w/w of compounds I-IV relative to the amount of tasquinimod. Therefore, according to the selected criterion for approval, the batch of capsules was determined to be suitable for distribution.
# as §2
# [3] = 0.25 mg capsules of Example 19, 3 months
# [4] = 0.25 mg capsules of Example 19, 6 months
# [5] = 0.25 mg capsules of Example 19, 9 months
# [6] = 0.25 mg capsules of Example 19, 12 months
# [7] = 0.25 mg capsules of Example 19, 18 months
# [8] = 0.25 mg capsules of Example 19, 24 months
# [9] = 0.25 mg capsules of Example 19, 36 months
# [10] = 0.25 mg capsules of Example 19, 48 months
# [11] = 0.5 mg capsules of Example 28, 3 months
# [12] = 0.5 mg capsules of Example 28, 6 months
# [13] = 0.5 mg capsules of Example 28, 9 months
# [14] = 0.5 mg capsules of Example 28, 12 months
# [15] = 0.5 mg capsules of Example 28, 18 months
# [16] = 0.5 mg capsules of Example 28, 24 months
# [17] = 0.5 mg capsules of Example 28, 36 months
# [18] = 0.5 mg capsules of Example 28, 48 months
# [19] = 1.0 mg capsules of Example 29, 3 months
# [20] = 1.0 mg capsules of Example 29, 6 months
# [21] = 1.0 mg capsules of Example 29, 9 months
# [22] = 1.0 mg capsules of Example 29, 12 months
# [23] = 1.0 mg capsules of Example 29, 18 months
# [24] = 1.0 mg capsules of Example 29, 24 months
# [25] = 1.0 mg capsules of Example 29, 36 months
# [26] = 1.0 mg capsules of Example 29, 48 months
structure (smiles),measurement,setting,value
"COc1cccc2c1c(O)c(C(=O)N(C)c1ccc(C(F)(F)F)cc1)c(=O)n2C [Tasquinimod, 4-hydroxy-5-methoxy-N, 1-dimethyl-2-oxo-N-[4-(trifluoromethyl)phenyl]-1,2-dihydroquinoline-3-carboxamide]",amount of tasquinimod in capsules,[1]; 0.25 mg capsules of Example 10,0.252 mg/capsule
same,amount of tasquinimod in capsules,[1]; 0.25 mg capsules of Example 13,0.256 mg/capsule
same,amount of tasquinimod in capsules,[1]; 0.25 mg capsules of Example 19,0.244 mg/capsule
same,amount of tasquinimod in capsules,[1]; 0.5 mg capsules of Example 7,0.498 mg/capsule
same,Tasquinimod (mg/capsule),[1]; 0.5 mg capsules of Example 28,0.500 mg/capsule
same,amount of tasquinimod in capsules,[1]; 1 mg capsules of Example 2,1.05 mg/capsule
same,amount of tasquinimod in capsules,[1]; 1 mg capsules of Example 16,0.994 mg/capsule
same,Tasquinimod (mg/capsule),[1]; 1.0 mg capsules of Example 29,0.992 mg/capsule
same,amount of tasquinimod in capsules,[2]; [3],0.246 mg/capsule
same,amount of tasquinimod in capsules,[2]; [4],0.243 mg/capsule
same,amount of tasquinimod in capsules,[2]; [5],0.243 mg/capsule
same,amount of tasquinimod in capsules,[2]; [6],0.245 mg/capsule
same,amount of tasquinimod in capsules,[2]; [7],0.245 mg/capsule
same,amount of tasquinimod in capsules,[2]; [8],0.237 mg/capsule
same,amount of tasquinimod in capsules,[2]; [9],0.237 mg/capsule
same,amount of tasquinimod in capsules,[2]; [10],0.238 mg/capsule
same,Tasquinimod (mg/capsule),[2]; [11],0.501 mg/capsule
same,Tasquinimod (mg/capsule),[2]; [12],0.497 mg/capsule
same,Tasquinimod (mg/capsule),[2]; [13],0.504 mg/capsule
same,Tasquinimod (mg/capsule),[2]; [14],0.500 mg/capsule
same,Tasquinimod (mg/capsule),[2]; [15],0.501 mg/capsule
same,Tasquinimod (mg/capsule),[2]; [16],0.486 mg/capsule
same,Tasquinimod (mg/capsule),[2]; [17],0.490 mg/capsule
same,Tasquinimod (mg/capsule),[2]; [18],0.494 mg/capsule
same,Tasquinimod (mg/capsule),[2]; [19],0.989 mg/capsule
same,Tasquinimod (mg/capsule),[2]; [20],0.988 mg/capsule
same,Tasquinimod (mg/capsule),[2]; [21],1.007 mg/capsule
same,Tasquinimod (mg/capsule),[2]; [22],0.992 mg/capsule
same,Tasquinimod (mg/capsule),[2]; [23],0.982 mg/capsule
same,Tasquinimod (mg/capsule),[2]; [24],0.997 mg/capsule
same,Tasquinimod (mg/capsule),[2]; [25],1.000 mg/capsule
same,Tasquinimod (mg/capsule),[2]; [26],0.987 mg/capsule
"COc1cccc2c1c(O)cc(=O)n2C [Compound III, 4-hydroxy-5-methoxy-1-methylquinolin-2(1H)-one]","amount of compound III in capsules, relative to the amount of tasquinimod",[1]; 0.25 mg capsules of Example 10,0.07 % w/w
same,"amount of compound III in capsules, relative to the amount of tasquinimod",[1]; 0.25 mg capsules of Example 13,0.06 % w/w
same,"amount of compound III in capsules, relative to the amount of tasquinimod",[1]; 0.5 mg capsules of Example 7,0.03 % w/w
same,"Decomposition products (% w/w), relative to the amount of tasquinimod in capsule",[1]; 0.5 mg capsules of Example 28,<0.05 % w/w
same,"amount of compound III in capsules, relative to the amount of tasquinimod",[1]; 1 mg capsules of Example 2,0.01 % w/w
same,"amount of compound III in capsules, relative to the amount of tasquinimod",[1]; 1 mg capsules of Example 16,0.02 % w/w
same,"Decomposition products (% w/w), relative to the amount of tasquinimod in capsule",[1]; 1.0 mg capsules of Example 29,<0.05 % w/w
same,"amount of decomposition product (each of compounds I-IV) in capsules, relative to the amount of tasquinimod",[2]; [3],0.10 % w/w
same,"amount of decomposition product (each of compounds I-IV) in capsules, relative to the amount of tasquinimod",[2]; [4],0.16 % w/w
same,"amount of decomposition product (each of compounds I-IV) in capsules, relative to the amount of tasquinimod",[2]; [5],0.21 % w/w
same,"amount of decomposition product (each of compounds I-IV) in capsules, relative to the amount of tasquinimod",[2]; [6],0.26 % w/w
same,"amount of decomposition product (each of compounds I-IV) in capsules, relative to the amount of tasquinimod",[2]; [7],0.35 % w/w
same,"amount of decomposition product (each of compounds I-IV) in capsules, relative to the amount of tasquinimod",[2]; [8],0.41 % w/w
same,"amount of decomposition product (each of compounds I-IV) in capsules, relative to the amount of tasquinimod",[2]; [9],0.57 % w/w
same,"amount of decomposition product (each of compounds I-IV) in capsules, relative to the amount of tasquinimod",[2]; [10],0.79 % w/w
same,"Decomposition products (% w/w), relative to the amount of tasquinimod in capsule",[2]; [11],0.05 % w/w
same,"Decomposition products (% w/w), relative to the amount of tasquinimod in capsule",[2]; [12],0.09 % w/w
same,"Decomposition products (% w/w), relative to the amount of tasquinimod in capsule",[2]; [13],0.11 % w/w
same,"Decomposition products (% w/w), relative to the amount of tasquinimod in capsule",[2]; [14],0.13 % w/w
same,"Decomposition products (% w/w), relative to the amount of tasquinimod in capsule",[2]; [15],0.16 % w/w
same,"Decomposition products (% w/w), relative to the amount of tasquinimod in capsule",[2]; [16],0.19 % w/w
same,"Decomposition products (% w/w), relative to the amount of tasquinimod in capsule",[2]; [17],0.27 % w/w
same,"Decomposition products (% w/w), relative to the amount of tasquinimod in capsule",[2]; [18],0.36 % w/w
same,"Decomposition products (% w/w), relative to the amount of tasquinimod in capsule",[2]; [19],<0.05 % w/w
same,"Decomposition products (% w/w), relative to the amount of tasquinimod in capsule",[2]; [20],<0.05 % w/w
same,"Decomposition products (% w/w), relative to the amount of tasquinimod in capsule",[2]; [21],<0.05 % w/w
same,"Decomposition products (% w/w), relative to the amount of tasquinimod in capsule",[2]; [22],0.06 % w/w
same,"Decomposition products (% w/w), relative to the amount of tasquinimod in capsule",[2]; [23],0.09 % w/w
same,"Decomposition products (% w/w), relative to the amount of tasquinimod in capsule",[2]; [24],0.10 % w/w
same,"Decomposition products (% w/w), relative to the amount of tasquinimod in capsule",[2]; [25],0.15 % w/w
same,"Decomposition products (% w/w), relative to the amount of tasquinimod in capsule",[2]; [26],0.18 % w/w
